Measurements from patent US7018642B2 (The Procter & Gamble Company, priority 2001, dated 2006).

Experiments:
Format in all cases: cell-based
[1] = tested on: S. epidermidis strain ATCC 35984; assay: Improved biofilm dispersion screen (already-formed biofilms, crystal violet); details: Staphylococcus epidermidis, ATCC35984, no NaOH, positive = dispersion, negative = enhancement of pre-existing biofilm, quadruplicate, read-out: average percentage reduction of biofilm relative to the two control values (dispersion)
Protocol: (§1) A modification of method disclosed in Reference Example 2, which greatly improves the sensitivity and reproducibility of the dispersion screen is hereby disclosed. […] In the modification described herein, compounds are added in the presence of the fresh liquid growth media, such that the resultant biofilms continue to grow, unless a test compound triggers their dispersion. Overnight cultures are made as above, and 100 μL of the appropriate liquid growth media are dispensed into duplicate 96 well microplates—in this fashion, two identical microplates are set up for each bacterial species to be assayed. Neither compounds nor DMSO are added prior to the inoculation of bacteria, and growth in the duplicate plates for 24 hours is allowed using the conditions specified in Reference Example 1. After growth of biofilm to be tested in the wells, cells present in biofilm attached to one of the duplicate microplates is stained with CV, quantitated as described in Reference Example 1, and the data for the entire plate averaged, resulting in a growth control value, t0. The remaining replicate of each microplate pairs is treated with compounds in DMSO, or DMSO alone for control wells, by first removing the cell suspensions from the wells, then adding fresh 100 μL volumes of the same appropriate liquid growth media, followed by direct addition and mixing of the compound DMSO solutions to give final compound concentrations of 390 μM. Incubation of the compound-containing microplates is then continued for an additional 22–26 hours using the same conditions described in Reference Example 1. Cell suspensions are then removed, 100 μL per well of a 0 mM NaOH (S. epidermidis), 20 mM NaOH (P. fluorescens), or 30 mM NaOH (P. aeruginosa) solution in PBS is added, and incubation at room temperature is allowed for 30 minutes. No addition of NaOH is made to the S. epidermidis suspension since a test assay indicated no amplification by base with S. epidermidis. The microplates are subsequently rinsed three times with 150 μL per well of PBS, followed by final liquid removal, staining with CV and quantitation as described in Reference Example 1. Data for each well that contained compound result in a compound value, R, and data for control wells that contained DMSO only are averaged to generate a second control value, t24. The effect of each compound tested on dispersion of the biofilm compared to the two control values is calculated thus: [formula] […] Data are expressed in terms of the average percentage reduction of biofilm formed in the presence of each compound, relative to the two control values, for quadruplicate samples. Assays are run as described above, using compound concentrations of 390 μM. Positive numbers indicate dispersion (reduction) of pre-existing biofilms by a compound, and negative numbers indicate enhancement (stimulation of growth) of pre-existing biofilms by a compound (percentage coefficients of variation are ≦15%).

[2] = tested on: P. aeruginosa strain PAO1; assay: as above; details: Pseudomonas aeruginosa, 30 mM NaOH step, positive = dispersion, negative = enhancement of pre-existing biofilm, quadruplicate, read-out: average percentage reduction of biofilm relative to the two control values (dispersion)
Protocol: as §1

[3] = tested on: P. fluorescens strain ATCC 13525; assay: as above; details: Pseudomonas fluorescens, ATCC13525, 20 mM NaOH step, positive = dispersion, negative = enhancement of pre-existing biofilm, quadruplicate, read-out: average percentage reduction of biofilm relative to the two control values (dispersion)
Protocol: as §1

[4] = tested on: S. epidermidis strain ATCC 35984; assay: Biofilm prevention screen (96-well microplate, crystal violet); details: Staphylococcus epidermidis, positive = prevention, negative = enhancement of biofilm formation, quadruplicate, read-out: average percentage reduction of biofilm formed relative to DMSO controls; for inhibition at 32 µM: ATCC35984, 32 μM; for inhibition at 160 µM: ATCC35984, 160 μM; for inhibition at 390 µM: ATCC35984, 390 μM
Protocol: (§2) Overnight cultures of 3 mL are made of P. aeruginosa strain PAO1 (grown in R2A medium (Handbook of Microbiological Media; CRC Press, 1997, second edition, R. M. Atlas, ed.), modified to omit Mg^2+ but to include 0.3–0.5% fructose (pH 7.0) and 3 μM ferrous ammonium sulfate), P. fluorescens strain ATCC 13525 (grown in R2A modified to omit Mg^2+ but to include 0.3–0.5% sodium pyruvate (pH 7.0)), S. epidermidis strain ATCC 35984 (grown in a ¼ dilution of TSB (Handbook of Microbiological Media; CRC Press, 1997, second edition, R. M. Atlas, ed.) supplemented with 1% fructose (pH 7.0) and 3 μM ferrous ammonium sulfate). To each type of growth medium, HEPES (pH 7.3) is optionally added to a final concentration of 10 mM.
(§3) To PS, PVC, or PP (preferably PP or PVC) round-bottom, 96-well microplates containing 100 μl per well of the respective growth medium as described above, compounds to be tested (dissolved in DMSO) are added and mixed, to give a final concentration of 250–500 μM. These microplates then also are used to make successive dilutions of the compounds in the same respective growth medium to yield microplates containing final concentrations of, for example, 160 μM and 32 μM of the same set of compounds. Control wells are included in the dilution series that contain only DMSO. From the 3 ml overnight cultures, each of the three dilution plate sets is inoculated with 5 μl per well of a 1:1 dilution in the same liquid growth media of the appropriate culture. The covered plate is then incubated with shaking, at 30° C. (for P. aeruginosa or P. fluorescens) or 37° C. (for S. epidermidis), at 200 rpm, for 16–26 hours, in a humidity controlled environment.
(§4) Cells present in biofilm attached to the microplate surface are stained with CV either after removal of the liquid from each well, followed by rinsing three times (aspiration and addition) with 150 μl per well phosphate buffered saline solution (PBS) and final addition of 100 μl per well of PBS, or by direct addition of stain to bacterial cultures without rinsing. To 100 μl per well of PBS or of bacterial culture, 25 μl/well of 1% CV solution (in ˜10% ethanol) is added. After incubation at room temperature for 45 minutes, the dye solution is removed from the plates. Residual dye is immediately removed by gentle rinsing with a stream of deionized water by filling and inverting the plates 4–5 times, or by using an automated pipettor. Rinsed plates are air-dried at room temperature for 0.5–2 hours. Bound dye is extracted by the addition of 150 μL per well of 95% ethanol, followed by vigorous mixing for 10–15 seconds and incubation for 45 minutes at room temperature without shaking. Subsequently, either undiluted or diluted (in ethanol) samples of extracted CV are transferred to flat bottom, polystyrene microtiter plates and absorbances at 586 nm were measured in a microplate reader. Readings from wells containing compounds are compared to the average of data from control wells that contain only DMSO. Replicate samples are measured, and results are reported as averages of the replicate well data points.
(§5) Data are expressed in terms of the average percentage reduction of biofilm formed in the presence of each compound, relative to the DMSO controls, for quadruplicate samples. Assays are run using the three compound concentrations indicated. Positive numbers indicate prevention of biofilm formation by a compound, and negative numbers indicate enhancement of biofilm formation by a compound (percentage coefficients of variation are ≦10%).

[5] = tested on: P. aeruginosa strain PAO1; assay: as above; details: Pseudomonas aeruginosa, positive = prevention, negative = enhancement of biofilm formation, quadruplicate, read-out: average percentage reduction of biofilm formed relative to DMSO controls
Protocol: as §2, §3, §4, §5

[6] = tested on: P. fluorescens strain ATCC 13525; assay: as above; details: Pseudomonas fluorescens, positive = prevention, negative = enhancement of biofilm formation, quadruplicate, read-out: average percentage reduction of biofilm formed relative to DMSO controls; for inhibition at 32 µM: ATCC13525, 32 μM; for inhibition at 160 µM: ATCC13525, 160 μM; for inhibition at 390 µM: ATCC13525, 390 μM
Protocol: as §2, §3, §4, §5

SMILES | inhibition at 390 µM [1] [%] | inhibition at 390 µM [2] [%] | inhibition at 390 µM [3] [%] | inhibition at 32 µM [4] [%] | inhibition at 160 µM [4] [%] | inhibition at 390 µM [4] [%] | inhibition at 32 µM [5] [%] | inhibition at 160 µM [5] [%] | inhibition at 390 µM [5] [%] | inhibition at 32 µM [6] [%] | inhibition at 160 µM [6] [%] | inhibition at 390 µM [6] [%]
CCCCCCNC(=O)C1CCCN1C(C)=O (racemic) [Compound 7] | 0 | -6 | -4 | -10 | 6 | -11 | -13 | -20 | -13 | -11 | -30 | -32
CCCCCCCCNC(=O)C1CCCN1C(C)=O (centres unmarked) [Compound 8] | 0 | -30 | -1 | -13 | -22 | -32 | -9 | -11 | -9 | -12 | -26 | -24
CCCCCCCCCCNC(=O)C1CCCN1C(C)=O (centres unmarked) [Compound 9] | 21 | -68 | -1 | -21 | -69 | 33 | -6 | -4 | -26 | -6 | -9 | 0
CCCCCCNC(=O)[C@@H]1CCCN1C(=O)OC(C)(C)C [Compound 10] | -6 | -9 | -2 | -18 | -17 | -25 | -7 | -16 | -16 | -1 | -5 | -6
CCCCCCCCNC(=O)[C@@H]1CCCN1C(=O)OC(C)(C)C [Compound 11] | 0 | -56 | -23 | 10 | -60 | 37 | -6 | -18 | -15 | -4 | -6 | -26
CCCCCCCCCCNC(=O)[C@@H]1CCCN1C(=O)OC(C)(C)C [Compound 12, N-(tert-Butoxycarbonyl)-L-proline n-decyl amide] | 0 | -30 | -30 | -21 | -2 | 31 | 6 | -45 | -32 | -16 | -42 | -37
CCCCCCCCNC(=O)[C@@H]1CCCCN1C(=O)OC(C)(C)C [Compound 19] | -3 | -25 | 0 | -11 | -33 | -11 | 10 | -2 | -17 | 6 | 8 | 10
CCCCCCCCNC(=O)[C@@H]1CCCCN1 [Compound 20] | 0 | 46 | 25 | 1 | 1 | -59 | -16 | -22 | 15 | -16 | -14 | 40
CCCCCCCCCCCCNC(=O)[C@@H]1CCN1C(=O)OC(C)(C)C [Compound 286] | 0 | -83 | – | -15 | -29 | 12 | -5 | -22 | -54 | -9 | -60 | -98
